Laboratory results as given in article PMC5618429, “Kempopeptin C, a Novel Marine-Derived Serine Protease Inhibitor Targeting Invasive Breast Cancer” (Marine Drugs, 2017).
Like-named read-outs stand apart in the source and are kept apart here.

What was measured:
[1] = tested on: trypsin; details: read-out: IC50 trypsin inhibition; cited from earlier work
[2] = tested on: plasmin; design: method as in PMID 20405925; details: read-out: IC50 plasmin inhibition; cited from earlier work
[3] = tested on: CDCP1 cleavage in MDA-MB-231 cells; design: method as in PMID 22543582; details: positive control, through upregulation of PAI-1; cited from earlier work
[4] = target: elastase; design: method as in PMID 18693761; details: cited from earlier work
[5] = tested on: chymotrypsin; design: method as in PMID 18693761; details: cited from earlier work
[6] = target: T1, trypsin from porcine pancreas (Sus scrofa, UniProt P00761); assay: Trypsin inhibition assay; assay type: biochemical; details: mean ± SD, n = 3; 30-min preincubation; read-out: IC50 against trypsin
T1 construct: purchased Sigma T0303; host or cells: porcine pancreas
T1 sequence (P00761 9-231): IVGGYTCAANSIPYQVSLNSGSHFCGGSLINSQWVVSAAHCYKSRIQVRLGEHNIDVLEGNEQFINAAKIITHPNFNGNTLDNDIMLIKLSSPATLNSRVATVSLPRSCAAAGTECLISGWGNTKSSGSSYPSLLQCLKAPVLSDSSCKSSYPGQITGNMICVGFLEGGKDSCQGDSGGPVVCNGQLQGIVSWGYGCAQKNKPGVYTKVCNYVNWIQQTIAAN
Procedure: The trypsin inhibition assay was carried out at room temperature by incubating 10 µL of trypsin from porcine pancreas (T0303, Sigma, St. Louis, MO, USA) (100 µM prepared in assay buffer) with 39 µL of assay buffer (50 mM Tris-HCl, 100 mM NaCl, 1 mM CaCl2; pH 7.8) in the presence of 1 µL of different concentrations of inhibitors (2 and 3; half log dilutions prepared in DMSO) or the solvent control. After a 30-min incubation time, 50 µL of the 1.5 mM substrate: Nα-benzoyl-DL-arginine-4-nitroanilide (prepared as 2 mM stock solution in DMF and further diluted to 1.5 mM in assay buffer) were added to each well. The reaction was monitored by measuring the absorbance at 405 nm every 30 s for 30 min using SpectraMax M5 plate reader (Molecular Devices, Sunnyvale, CA, USA).

[7] = target: T2, plasmin from human plasma (Homo sapiens, UniProt P00747); assay: Plasmin inhibition assay; assay type: biochemical; details: mean ± SD, n = 3; 30-min preincubation; read-out: IC50 against plasmin
T2 construct: purchased Sigma P1867; host or cells: human plasma
T2 sequence (P00747 581-810 limits assumed): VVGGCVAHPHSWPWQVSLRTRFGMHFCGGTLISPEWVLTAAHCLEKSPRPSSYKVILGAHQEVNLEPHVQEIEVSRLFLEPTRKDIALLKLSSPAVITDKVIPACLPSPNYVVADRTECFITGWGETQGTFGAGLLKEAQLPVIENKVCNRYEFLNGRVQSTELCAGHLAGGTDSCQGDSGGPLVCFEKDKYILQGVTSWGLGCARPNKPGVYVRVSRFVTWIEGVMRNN
T2 sequence (P00747 98-580 partner limits assumed): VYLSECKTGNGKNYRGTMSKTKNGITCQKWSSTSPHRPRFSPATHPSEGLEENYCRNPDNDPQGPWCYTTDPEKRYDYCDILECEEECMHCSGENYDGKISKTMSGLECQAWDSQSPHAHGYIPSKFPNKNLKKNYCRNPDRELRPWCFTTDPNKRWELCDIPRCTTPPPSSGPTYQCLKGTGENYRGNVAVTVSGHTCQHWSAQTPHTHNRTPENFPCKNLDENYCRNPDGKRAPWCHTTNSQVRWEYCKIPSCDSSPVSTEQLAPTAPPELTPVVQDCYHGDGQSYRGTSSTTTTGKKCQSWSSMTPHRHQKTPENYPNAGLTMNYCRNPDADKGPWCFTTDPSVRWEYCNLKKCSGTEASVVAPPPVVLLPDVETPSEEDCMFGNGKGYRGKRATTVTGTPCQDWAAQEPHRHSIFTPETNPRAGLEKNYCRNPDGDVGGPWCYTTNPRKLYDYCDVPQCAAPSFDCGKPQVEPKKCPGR
Procedure: The plasmin inhibition assay was carried out by incubating 5 µL of […] plasmin from human plasma (P1867, Sigma, St. Louis, MO, USA) with 1 µL of different concentrations of inhibitors (2 and 3; half log dilutions prepared in DMSO) or the solvent control in the presence of 89 µL assay buffer (0.05 M Tris-HCl, pH 8.9). After a 30-min incubation time, 5 µL of 1.7 mM substrate solution (N-p-Tosyl-D-Gly-Pro-Lys-4-nitroanilide acetate salt; prepared in assay buffer) were added to each well. The reaction was monitored by measuring the absorbance at 405 nm every 30 s for 30 min using the SpectraMax M5 plate reader (Molecular Devices).

[8] = target: T3, recombinant human matriptase (Homo sapiens, UniProt Q9Y5Y6); assay: Matriptase inhibition assay; assay type: biochemical; details: mean ± SD, n = 3; 15-min preincubation; read-out: IC50 against matriptase
T3 construct: purchased R&D Systems 3946-SE-010
T3 sequence (Q9Y5Y6 615-855 limits assumed): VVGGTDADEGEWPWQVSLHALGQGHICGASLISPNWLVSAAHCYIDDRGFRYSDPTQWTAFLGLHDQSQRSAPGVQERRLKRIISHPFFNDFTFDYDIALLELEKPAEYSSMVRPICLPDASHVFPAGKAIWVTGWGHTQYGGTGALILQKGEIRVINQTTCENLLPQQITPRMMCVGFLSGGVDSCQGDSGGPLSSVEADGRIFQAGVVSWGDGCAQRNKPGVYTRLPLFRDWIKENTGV
Procedure: In matriptase inhibition assay, 50 µL of recombinant human matriptase (R&D Systems, Minneapolis, MN, USA; 3946-SE-010) ([…] prepared in assay buffer: 50 mM Tris, 50 mM NaCl, 0.01% Tween 20; pH 9.0) and 1 µL of different concentrations of inhibitors (2 and 3; half log dilutions prepared in DMSO) or the solvent control were pre-incubated at room temperature for 15 min. Following the incubation period, 50 µL of the 50 µM substrate solution (Boc-Gln-Ala-Arg-AMC) (R&D Systems, Minneapolis, MN, USA; ES014) were added to each well, and the enzyme activity was monitored by measuring the increase in fluorescence signal from the fluorescently-labeled substrate every 30 s for 30 min (Ex 380 nm, Em 460 nm) using the SpectraMax M5 plate reader (Molecular Devices).

[9] = Cell viability assay (MTT); assay type: cell-based; details: human, MDA-MB-231 breast cancer cells; MDA-MB-231, 48 h, all concentrations tested (32 µM to 320 pM)
Procedure: MDA-MB-231 cells were seeded in 96-well plates (10,000 cells/well). After 24 h of incubation, the cells were treated with different concentrations of kempopeptins B or C (2 or 3) or the solvent control (DMSO). Following 48 h of incubation, cell viability was measured using 3-(4,5-dimethylthiazol-2-yl)-2,5-diphenyltetrazolium bromide according to the manufacturer's instructions (Promega, Madison, WI, USA).
Effect of kempopeptins on the viability of MDA-MB-231 cells
Kempopeptin C Kempopeptin B
Figure S1. Effect of kempopeptins B and C (2) and (3) on the viability of MDA -MB-231 breast cancer cells.

[10] = tested on: CDCP1 cleavage in MDA-MB-231 cells; assay: Cleavage of CDCP1 in MDA-MB-231 cells (Western blot); assay type: cell-based; details: 72 h, different concentrations
Procedure: The experiment was performed by treating MDA-MB-231 cells with different concentrations of either kempopeptin B (2) or C (3) for 72 h (Figure 6A). Dexamethasone (Dex) 100 nM was used as a positive control.
Figure 6 The effect of kempopeptins B and C (2 and 3) on CDCP1 cleavage in MDA-MB-231. (A) MDA-MB-231 cells were treated for 72 h with different concentrations of the test compounds. Following 72 h, the lysates were collected and analyzed by Western blot. (B) MDA-MB-231 cells were treated at different time points with 100 µM of kempopeptin C (3). Following 6 h, 12 h and 24 h, the lysates were collected and analyzed by Western blot. Dexamethasone (Dex) was used as a positive control. (C) MDA-MB-231 cells treated for 24 h with different concentrations of 3 in the presence of 10 nM recombinant human matriptase. Cell lysates were harvested and analyzed by Western blot. (D) Densitometric analysis of the full-length, LMW of CDCP1 and actin bands in (C).
MDA-MB-231 cells (150,000 cells/well) were seeded in 12-well plates. After 24 h, the media were replaced, and cells were treated with different concentrations of inhibitors (2 or 3; prepared in DMSO), the solvent control or the positive control dexamethasone. Whole-cell protein lysates were collected after 6, 12, 24 and 72 h using PhosphoSafe lysis buffer (Novagen, Madison, USA) and the protein concentration measured using the BCA Protein Assay kit (Pierce; 23227; Thermofisher Scientific; Waltham, MA, USA). Twenty micrograms of protein were separated by SDS-PAGE, transferred to polyvinylidene difluoride (PVDF) membranes, probed with CDCP1 antibody (Cell Signaling; 4115S) and detected with SuperSignal West Femto Maximum Sensitivity Substrate (Pierce).

Compound: CC(C)C[C@@H](NC(=O)[C@H](O)COS(=O)(=O)O)C(=O)N[C@@H]1C(=O)N[C@@H](CCCNC(=N)N)C(=O)N[C@H]2CC[C@@H](O)N(C2=O)[C@@H](CC(C)C)C(=O)N(C)[C@@H](Cc2ccc(O)cc2)C(=O)N[C@@H](C(C)C)C(=O)O[C@@H]1C [Compound A90720A, A90720A]
- IC50 [1]: ~10 nM

Compound: CCCCCC(=O)N[C@@H](CCC(=O)O)C(=O)N[C@@H]1C(=O)N[C@@H](CCCNC(=N)N)C(=O)N[C@H]2CC[C@@H](O)N(C2=O)[C@@H](Cc2ccccc2)C(=O)N(C)[C@@H](Cc2ccc(O)cc2)C(=O)N[C@@H](C(C)C)C(=O)O[C@@H]1C [Cyanopeptolin 1020, cyanopeptolin 1020]
- IC50 [1]: 0.67 nM
- IC50 [2]: ~490 nM

Compound: C[C@@H]1C[C@H]2[C@@H]3CCC4=CC(=O)C=C[C@]4(C)[C@@]3(F)[C@@H](O)C[C@]2(C)[C@@]1(O)C(=O)CO [Dexamethasone]
- Effect on cleavage of full-length CDCP1 [3]: blocks the cleavage of the full-length CDCP1

Compound: CC(=O)N1CCC[C@H]1C(=O)N[C@H](C(=O)N[C@@H]1C(=O)N[C@@H](CC(C)C)C(=O)N[C@H]2CC[C@@H](O)N(C2=O)[C@@H](Cc2ccccc2)C(=O)N(C)[C@@H](Cc2ccc(O)cc2)C(=O)N[C@@H](C(C)C)C(=O)O[C@@H]1C)[C@@H](C)O [Kempopeptin A, kempopeptin A]
- IC50 ([4]; read-out: IC50 elastase inhibition): 320 nM
- IC50 ([5]; read-out: IC50 chymotrypsin inhibition): 2600 nM

Compound: CCCC(=O)N[C@H](C(=O)N[C@@H]1C(=O)N[C@@H](CCCCN)C(=O)N[C@H]2CC[C@@H](O)N(C2=O)[C@@H]([C@@H](C)CC)C(=O)N(C)[C@@H](Cc2ccc(OC)c(Br)c2)C(=O)N[C@@H](C(C)C)C(=O)O[C@@H]1C)C(C)C [Kempopeptin B, kempopeptin B]
- IC50 [6]: 1490 ± 180 nM
- IC50 [7]: 1050 ± 190 nM
- IC50 [8]: 1830 ± 190 nM
- viability at 48 h [9]: > 90%
- Inhibition of CDCP1 cleavage in MDA-MB-231 [10]: No inhibition of CDCP1 cleavage was observed
- IC50 ([4]; read-out: IC50 against elastase): > 67000 nM
- IC50 ([5]; read-out: IC50 against chymotrypsin): > 67000 nM

Compound: CCCC(=O)N[C@@H](CCC(N)=O)C(=O)N[C@@H]1C(=O)N[C@@H](CCCNC(N)=O)C(=O)N[C@H]2CC[C@@H](O)N(C2=O)[C@@H]([C@@H](C)CC)C(=O)N(C)[C@@H](Cc2ccc(OC)c(Br)c2)C(=O)N[C@@H](C(C)C)C(=O)O[C@@H]1C [Symplocamide A, symplocamide A]
- IC50 [1]: ~80000 nM
